Test results reported in ChEMBL document CHEMBL1817605, “Development of a highly selective fluorescence probe for alkaline phosphatase” (Bioorg Med Chem Lett, 2011).
Activity calls are given as the source filed them. The rule behind the calls is not given here.

How the values were obtained:
[1] = target: T1, Tyrosine-protein phosphatase non-receptor type 1 (Homo sapiens) (UniProt P18031); experiment: Activity of PTP1B
T1 sequence (whole entry): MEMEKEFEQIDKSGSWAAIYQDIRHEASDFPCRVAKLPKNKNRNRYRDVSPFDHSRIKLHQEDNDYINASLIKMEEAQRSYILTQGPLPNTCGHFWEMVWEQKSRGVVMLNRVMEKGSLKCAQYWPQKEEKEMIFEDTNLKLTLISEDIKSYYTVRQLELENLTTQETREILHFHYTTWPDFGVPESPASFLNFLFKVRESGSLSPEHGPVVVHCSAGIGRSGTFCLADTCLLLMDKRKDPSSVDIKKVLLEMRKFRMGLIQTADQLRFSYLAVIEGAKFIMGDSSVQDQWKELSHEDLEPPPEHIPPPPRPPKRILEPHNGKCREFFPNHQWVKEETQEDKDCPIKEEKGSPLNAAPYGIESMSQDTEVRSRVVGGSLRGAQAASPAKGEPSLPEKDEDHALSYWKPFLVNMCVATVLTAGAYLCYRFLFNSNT

[2] = Activity of alkaline phosphatase at 2 uM measured every 2 mins from up to 30 mins by fluorometric analysis
[3] = target: Serine/threonine-protein phosphatase PP1-alpha catalytic subunit (Homo sapiens) (UniProt P62136); experiment: Activity of PP1 alpha
Sequence of Serine/threonine-protein phosphatase PP1-alpha catalytic subunit (Homo sapiens) (P62136 whole entry): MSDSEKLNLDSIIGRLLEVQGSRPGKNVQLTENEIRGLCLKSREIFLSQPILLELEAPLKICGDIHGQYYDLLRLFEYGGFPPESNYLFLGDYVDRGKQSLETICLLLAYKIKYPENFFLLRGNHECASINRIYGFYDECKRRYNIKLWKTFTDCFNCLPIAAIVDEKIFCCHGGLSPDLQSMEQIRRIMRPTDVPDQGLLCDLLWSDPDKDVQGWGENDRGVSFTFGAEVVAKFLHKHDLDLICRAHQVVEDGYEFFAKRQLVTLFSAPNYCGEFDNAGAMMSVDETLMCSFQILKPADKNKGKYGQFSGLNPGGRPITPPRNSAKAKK

[4] = Ratio of Vmax to Km for alkaline phosphatase
[5] = Activity of alkaline phosphatase by Michaelis-Menten equation analysis

Activity [1] | Activity [2] | Activity [3] | Vmax/Km [4] [min⁻¹] | Km [5] [µM] | Vmax [5] [µM/min] | Structure (SMILES)
Active | Active |  |  |  |  | O=C1OC2(c3ccc(OP(=O)(O)O)cc3Oc3cc(OP(=O)(O)O)ccc32)c2ccccc21
inactive | Active | inactive | 0.043 | 0.77 | 0.033 | COc1ccc(-c2c3ccc(=O)cc-3oc3cc(OCOP(=O)(O)O)ccc23)c(C)c1
Active | Active | Active | 0.026 | 0.96 | 0.025 | COc1ccc(-c2c3ccc(=O)cc-3oc3cc(OP(=O)(O)O)ccc23)c(C)c1
